The subject of data set [1] is promastigote form of L. donovani. The following applies: cited from earlier work.
For the next data set, the system named is L. donovani amastigotes. Nature of the data set: Anti-amastigote assay in infected THP-1 macrophages (Giemsa). The data set is classed as cell-based, Leishmania donovani. Here is the method:
To evaluate the anti-leishmanial effect of the compound T4 and T7 on intracellular L. donovani parasites, macrophage was infected with stationary -phase L. donovani for 6 h. The cells were then washed with saline to remove any non-internalised parasites. To assess the effect of compounds T4 and T7 on intracellular parasites at early stages of infection, macrophages were subsequently treated with T4 and T7 at concentrations of 100, 50, 25, 12.5, or 6.25 μM (refer to Table 3 and Fig. 7) for 6, 24, or 48 hours.
THP-1 cells (5 × 10^5 cells per mL) were cultivated in RPMI-1640 media (Roswell Park Memorial Institute 1640) (Sigma-Aldrich, USA), supplemented with 10% fetal calf serum and maintained at 37 °C with 5% CO2 using phorbol ester as the inducer. These cells were added on circular coverslips (1 × 10^6 cells per mL). Promastigotes of L. donovani were introduced at 1 : 20 ratio. Treatment of the samples was carried out at doses of 100, 50, 25, 12.5, 6.25 and 3.125 μM/72 h. After being taken off, the coverslips were stained with Giemsa. The rate of macrophage infection was then ascertained.

Data set [2] has as its system L. donovani promastigotes. The experiment in a line: Dose-dependent anti-promastigote activity and determination of IC50 (MTT). The class given is cell-based. The following applies: Leishmania donovani, 72 h, 3 days at 26 °C. Here is the method:
MTF was used as a standard antileishmanial drug control. The cell viability was evaluated (by MTT Assay) and the mean percentage viability was calculated as follows: Mean cell number of treated parasites/mean cell number of untreated parasites × 100. The 50 and 90% inhibitory concentration (IC50) i.e., the concentration of drugs that decreased the cell growth by 50 and 90% respectively, was determined by graphical extrapolation after plotting the graph of percentage viability vs. concentration of the drug.[31]
Parasite viability was not affected by DMSO (0.2%, data not shown) used as solvent control.[33]

Data set [3] relates to Human macrophage THP-1 cell line. Nature of the data set: Cytotoxicity assay on THP-1 cell line (MTT). The data set is classed as cell-based. The note with it: 3.125–100 μM. On the procedure: The cell lines were incubated for 48 h at 37 °C in a CO2 incubator with increasing concentrations of test compounds and viability was ascertained. Each point or bar corresponds to the mean ± SEM of triplicate samples and is representative of one of three independent experiments.
THP-1 human monocytic cells were grown at 37 °C in medium RPMI-1640 (pH 7.4, Sigma-Aldrich, St. Louis, MO, USA) supplemented with 10% heat-inactivated FBS for 48 to 72 h in a humidified atmosphere of 5% CO2 and sub-cultured in fresh RPMI-1640 medium at an average density 2 × 10^5 cells per mL (Sharma et al. 2023).[30]
Human macrophage THP-1 cell line of 0.5 × 10^6 cells per mL seeded in RPMI-1640 medium (Sigma-Aldrich, USA) supplemented with 10% FBS (GIBCO) in presence of 5% CO2 at 37 °C in triplicate in 96 well culture plate. The cells were treated with two-fold serially diluted concentrations (100–3.125 μM) of the candidate molecules for 72 h. The IC50 was calculated using MTT assay (Sharma et al. 2023).[30]

The subject of data set [4] is L. donovani promastigotes. Nature of the data set: Anti-leishmanial screening against L. donovani promastigotes at a single concentration (MTT). The data set is classed as cell-based, Leishmania donovani. The note with it: for % Inhibition of L. donovani promastigotes / Activity against the promastigote parasite (in words): 100 μM; for % Inhibition of L. donovani promastigotes / inhibition at 100 µM: 72 h at 26 °C, MTT; for inhibition at 100 µM: Leishmania donovani, 72 h.
Method: Each candidate was evaluated for its in vitro activity against reference strain (MHOM/IN/83/AG83) of extracellular promastigotes and intracellular amastigotes of L. donovani.
Promastigotes were routinely cultured at 26 °C in medium M199 supplemented with 10% heat inactivated fetal bovine serum (FBS, Gibco Laboratories, Mumbai, India), penicillin 100 (IU mL^−1), streptomycin (100 μg mL^−1). Log phase promastigotes were sub-cultured every 72–96 h, the inoculum being 2 × 10^6 cells per mL.[29]
The triazin hybrids series was evaluated for their antileishmanial ability against L. donovani promastigotes in vitro. Promastigotes of L. donovani (1× 10^6 cells per mL) in M199 medium were incubated at 26 °C for 72 h with each compound at a concentration of 100 μM. Miltefosine (MTF) was used as a reference drug, 0.2% DMSO as solvent control. Parasites with media alone were taken as control. Parasite viability was achieved by MTT assay after 72 h (Sharma et al. 2023).[30]

Entries after “also recorded” stand apart in the source; their conditions may differ. Bounds are passed on as bounds.

As for “1,2,4-triazino[5,6-b]indol-3-ylthio-1,3,5-triazine [1 (Fig. 2)]”, in data set [1], the “fold more selectivity in comparison to pentamidine” value is reported as 20 fold, the “fold more selectivity in comparison to sodium stibogluconate” value is listed as 10 fold, the “inhibition against promastigote form of L. donovani” value is on record as “more than 90%” and the “selectivity (S.I.)” value is on record as 56.61.
The IC50 is the point on the concentration scale where inhibition reaches its midpoint. With `C[C@@H]1[C@H](O)[C@@H](C)/C=C/C=C/C=C/C=C/C=C/C=C/C=C/[C@H](O[C@@H]2O[C@H](C)[C@@H](O)[C@H](N)[C@@H]2O)C[C@@H]2O[C@](O)(C[C@@H](O)C[C@@H](O)[C@H](O)CC[C@@H](O)C[C@@H](O)CC(=O)O[C@H]1C)C[C@H](O)[C@H]2C(=O)O` [Ampho B, Amphotericin B, reference compound], the “Percentage reduction of parasites (amastigote)” value came out at 74% in the data set on L. donovani amastigotes (6.25 μM); 76% in the data set with L. donovani amastigotes (12.5 μM); 79.44% in the data set with L. donovani amastigotes (25 μM); 82.5% in the data set with L. donovani amastigotes (50 μM); 84.2% with L. donovani amastigotes (100 μM). The molecule further had a concentration for half-maximal inhibition (IC50) in data set [2] of 1.04 µM.
On to `CCCCCCCCCCCCCCCCOP(=O)([O-])OCC[N+](C)(C)C` [MTF, miltefosine, reference compound], for which the “Percentage reduction of parasites (amastigote)” value was 68% in the data set with L. donovani amastigotes (6.25 μM); 72% with L. donovani amastigotes (12.5 μM); 73% in the data set on L. donovani amastigotes (25 μM); 74% with L. donovani amastigotes (50 μM); 76% with L. donovani amastigotes (100 μM). This molecule also had an IC50 in data set [2] of 1.48 µM. The “Cytotoxicity on THP-1 human macrophages (in words)” value is given as “some cytotoxicity” in data set [3] and “nontoxic” in data set [3] (listed as Miltefosine).
As a reminder, the melting point is the temperature, or range, at which the solid turns liquid. On to `Clc1ccc2c(Sc3nnc(-c4ccccc4)c(-c4ccccc4)n3)ccnc2c1` [T1, 7-Chloro-4-((5,6-diphenyl-1,2,4-triazin-3-yl)thio)quinoline], for which the melting point fell in the range of 250 to 252 °C. In addition, the “% Inhibition of L. donovani promastigotes” value (“% Inhibition” below) in data set [4] stood at 66.78%.
One may read the inhibition as the percentage by which the read-out fell short of the control. For `CCOC(=O)c1cnc2ccc(OC)cc2c1Sc1nnc(-c2ccccc2)c(-c2ccccc2)n1` [T2, Ethyl 4-((5,6-diphenyl-1,2,4-triazin-3-yl)thio)-6-methoxyquinoline-3-carboxylate], the melting point is 200 to 202 °C. In addition, in data set [4], the “% Inhibition” value is 71.02% and the inhibition at 100 µM is below 90%.
The corresponding values for `CCOC(=O)c1cnc2ccc(C)cc2c1Sc1nnc(-c2ccccc2)c(-c2ccccc2)n1` [T3, Ethyl 4-((5,6-diphenyl-1,2,4-triazin-3-yl)thio)-6-methylquinoline-3-carboxylate] are 210 to 212 °C, 83.43% and below 90%.
`O=C(CSc1nnc(-c2ccccc2)c(-c2ccccc2)n1)Nc1cc(=O)oc2ccccc12` [T5, 2-((5,6-Diphenyl-1,2,4-triazin-3-yl)thio)-N-(2-oxo-2H-chromen-4-yl)acetamide] showed a melting point of 200 to 202 °C. For the same molecule, the “% Inhibition” value in data set [4] is on record as 67.93%.
In turn, `c1ccc(-c2nnc(Sc3cc(N4CCOCC4)ncn3)nc2-c2ccccc2)cc1` [T6, 4-(6-((5,6-Diphenyl-1,2,4-triazin-3-yl)thio)pyrimidin-4-yl)morpholine] showed a melting point of 198 to 200 °C. Moreover, in data set [4], the “Activity against the promastigote parasite (in words)” value (“Activity” below) was “negligible activity” and the inhibition at 100 µM turned out to be 43.9%.
Turning to `c1ccc(-c2nnc(Sc3cc(N4CCCCC4)ncn3)nc2-c2ccccc2)cc1` [T8, 5,6-Diphenyl-3-((6-(piperidin-1-yl)pyrimidin-4-yl)thio)-1,2,4-triazine], in data set [4], the “Activity” value is on record as “negligible activity” and the inhibition at 100 µM was 73.7%.
Turning to `N#Cc1cccnc1N1CCN(c2cc(Sc3nnc(-c4ccccc4)c(-c4ccccc4)n3)ncn2)CC1` [T9, 2-(4-(6-((5,6-Diphenyl-1,2,4-triazin-3-yl)thio)pyrimidin-4-yl)piperazin-1-yl)nicotinonitrile], the melting point fell in the range of 250 to 252 °C. Also, in data set [4], the “Activity” value was “negligible activity” and the inhibition at 100 µM turned out to be 29.8%.
The corresponding values for `Clc1ccc2c(N3CCN(c4cc(Sc5nnc(-c6ccccc6)c(-c6ccccc6)n5)ncn4)CC3)ccnc2c1` [T10, 7-Chloro-4-(4-(6-((5,6-diphenyl-1,2,4-triazin-3-yl)thio)pyrimidin-4-yl)piperazin-1-yl) quinoline] are 260 to 262 °C, “negligible activity” and 22.4%.
The like results for `Cc1cc(N2CCN(c3cc(Sc4nnc(-c5ccccc5)c(-c5ccccc5)n4)ncn3)CC2)n2ncnc2n1` [T11, 7-(4-(6-((5,6-Diphenyl-1,2,4-triazin-3-yl)thio)pyrimidin-4-yl)piperazin-1-yl)-5-methyl-[1,2,4]triazolo[1,5-a]pyrimidine] were, in that order, 280 to 285 °C, “negligible activity” and 32.1%.
For `COc1ccccc1N1CCN(c2cc(Sc3nnc(-c4ccccc4)c(-c4ccccc4)n3)ncn2)CC1` [T12, 103-((6-(4-(2-methoxyphenyl)piperazin-1-yl)pyrimidin-4-yl)thio)-5,6-diphenyl-1,2,4-triazine], in data set [4], the “Activity” value is “negligible activity; also recorded: minimal activity” and the “% Inhibition” value was found to be 21.86%.
The like results for `CCN1CCN(c2cc(Sc3nnc(-c4ccccc4)c(-c4ccccc4)n3)ncn2)CC1` [T13, 113-((6-(4-Ethylpiperazin-1-yl)pyrimidin-4-yl)thio)-5,6-diphenyl-1,2,4-triazine] were, in that order, “negligible activity; also recorded: minimal activity” and 18.54%.
The like results for `O=[N+]([O-])c1ccc(N2CCN(c3cc(Sc4nnc(-c5ccccc5)c(-c5ccccc5)n4)ncn3)CC2)cc1` [T14, 123-((6-(4-(4-Nitrophenyl)piperazin-1-yl)pyrimidin-4-yl)thio)-5,6-diphenyl-1,2,4-triazine] were, in that order, “negligible activity; also recorded: minimal activity” and 22.76%.
Consider `Fc1ccc(N2CCN(c3cc(Sc4nnc(-c5ccccc5)c(-c5ccccc5)n4)ncn3)CC2)cc1` [T15, 3-((6-(4-(4-Fluorophenyl)piperazin-1-yl)pyrimidin-4-yl)thio)-5,6-diphenyl-1,2,4-triazine], for which, in data set [4], the “Activity” value is given as “negligible activity; also recorded: minimal activity” and 100 µM produced 28.8% inhibition.
